The source of these data is patent publication US4402975A, “Aminocarboxylic acids, amino alcohols, or the derivatives thereof, processes for production thereof, and pharmaceutical uses thereof” (Teijin Limited, priority 1980, dated 1983).

Counter-ions that a name gives are not always drawn.

Test [1] deals with blood flow in the gastric mucosa. Description: Increasing activity on the blood flow in the dog gastric mucosa. The format is in vivo, Male Beagle dogs. As to conditions: anesthetized dogs, cross thermocouple method. Here is the method:
Male Beagle dogs (10 to 15 kg) were anesthetized by intravenously administering sodium pentobarbital in a dose of 35 mg/kg, and used in the following experiment.
The blood flow in the gastric mucosa was measured by a cross thermocouple method. The abdomen was cut open along the median line to expose the stomach. A wire-type cross thermocouple element was inserted behind the mucosa on the glandular stomach. The blood flow measured by the cross thermocouple element was recorded continuously in a recorder. For the method of measuring the blood flow, reference may be made to a Japanese-language publication "Blood Flow Measurement", page 105, 1974 Igakushoin, edited by Okinaka, Hori and Honda.

In the next test the test system is indomethacin ulcer. Description: Inhibitory activity on indomethacin ulcer. To be noted: 200 mg/kg oral, 30 min before indomethacin 20 mg/kg oral, rats. The format is in vivo, SD-strain male rats. The procedure: Seven week-old SD-strain male rats (body weight 200 to 220 g) were fasted for 24 hours but water was provided freely, and then used in the following experiment.
Each of the test compounds suspended in 0.5% CMC was orally administered to the rats, and 30 minutes later, indomethacin was orally administered in a dose of 20 mg/kg. Six hours later, the animals were sacrificed. The abdomen was cut open, and the stomach was removed. 1% Evan's blue was injected in an amount of 0.5 ml/rat into the rats through the tail vein under ether anesthesia 10 minutes before sacrificing.
12 ml of a 1% formalin was injected into the stomach and the stomach was further dipped in 1% formalin for about 10 minutes for the fixation. The stomach was cut open on the side of the greater curvature, and spread on a glass plate. The lengths of ulcers generated in the glandular stomach were measured by using a solid microscope. The sum of the lengths of the ulcers for each animal was used as the ulcer index. The ulcer inhibiting ratio of the test compound was calculated in accordance with the following equation. [formula]
The control group was given 0.5% CMC and indomethacin alone.

The next test has as its target T1, plasmin (Homo sapiens, UniProt P00747).
T1 construct: fibrin clot lysis, native
Description: Antiplasmin activity (clot lysis time, fibrinogen/urokinase/thrombin). The format is biochemical. To be noted: first series, control 391.7 ± 16.1. Here is the method: Human fibrinogen was dissolved in a phosphate-buffered physiological saline (PBS) at a pH of 7.4 to prepare a 0.2% solution. Urokinase and thrombin were dissolved similarly in PBS to prepare a solution containing 120 units of urokinase and 50 units of thrombin per ml. […] Then, 0.1 ml of the urokinase-thrombin mixed solution was added, and a microchronometer was started. One minute after the starting of the microchronometer, a glass ball having a diameter of 8 mm was put on the coagulated surface, and the incubation was continued. The time which elapsed from the dissolution of the coagulated mass until the glass ball dropped onto the bottom of the test tube was measured. As a control, PBS alone was added.

A further test concerns gastric secretion. Kind of test: Inhibitory activity on gastric secretion (pylorus ligation). The format is in vivo, male rats. As to conditions: for Amount of gastric juice: 4 hours after pylorus ligation, control 6.8 ± 0.6, in ml (unit assumed); for Acidity: control 109.1 ± 1.7. Here is the method:
Seven week-old DS-strain male rats (body weight 200 to 220 g) were fasted for 24 hours but water was provided freely, and then used in the following experiment.
The rats were anesthetized with ether. The abdomen was cut open along the median line to expose the pylorus. Then, the pylorus was ligated. After ligation, each of the test compounds dissolved in physiological saline was intraperitoneally administered to the animals. The abdomen was sutured, and after confirming that the animals recovered from ether anesthesia, they were kept in a wire cage while being deprived of food and water. Four hours later, the animals were killed by using ether. The abdomen was again cut open, and the stomach was removed. The gastric juice was collected, and its volume and acidity was measured. The acidity of the gastric juice was determined by titrating with 0.05 N sodium hydroxide using phenolphthalein as an indicator, and calculating the amount of sodium hydroxide required to neutralize the gastric juice which is estimated as the acidity of the gastric juice.
(§1) The control group was given physiological saline alone.
For the method of studying the inhibitory activity on the gastiic secretion, reference may be made to H. Shay, S. A. Komoroe, S. S. Fels, M. Meraze, M. Gruestein and H. Siplet: Gastroent., 5, 43 (1945), and M. L. Anson: J. Gen, Physiol., 21, 79 (1938).

Another test has as its system serotonin ulcer. Kind of test: Inhibitory activity on serotonin ulcer. The format is in vivo, SD-strain male rats. To be noted: 30 min before serotonin 20 mg/kg s.c., rats. The procedure:
Seven week-old SD-strain male rats (body weight 200 to 220 g) were fasted for 24 hours but water was provided freely, and then used in the following experiment. Each of the test compounds suspended in 0.5% CMC was administered to the rats either orally or intraperitoneally, and 30 minutes later, serotonin (serotonin creatinine sulfate) was subcutaneously administered to the rats in a dose of 20 mg/kg. Four hours later, the animals were sacrificed. The abdomen was cut open, and the stomach was taken out from each animal. 12 ml of 1% formalin was injected into the stomach to inflate it, and the stomach was further dipped for about 10 minutes in 1% formalin for fixation. Then, the stomach was cut open on the side of the lesser curvature, and spread on a glass plate. The area of ulcers generated in the glandular stomach was measured by using a solid microscope. The sum of the area of ulcer for each animal was used as the ulcer index. The ulcer inhibiting ratio of the test compound was calculated in accordance with the following equation. [formula] The control group was given 0.5% CMC and serotonin alone.

The subject of the next test is Shay ulcer. Kind of test: Inhibitory activity on Shay ulcer (pylorus ligation). The format is in vivo, SD-strain male rats. As to conditions: 300 mg/kg i.p. The procedure: Seven week-old SD-strain male rats (body weight 200 to 220 g) were fasted for 24 hours but water was provided freely, and then used in the experiment.
The rats were anesthetized with ether. The abdomen was cut open along the median line to expose the pylorus. Then, the pylorus was ligated. After the ligation, each of the test compounds, dissolved in physiological saline, was administered intraperitoneally to the rats. The abdomen was sutured. After confirming that the animals recovered from ether anesthesia, they were kept in a wire cage while being deprived of food and water. Seventeen hours later, the animals were killed by using ether. The abdomen was again cut open, and the stomach was removed. The stomach was cut open, and the area of ulcers generated in the fundus was measured by using a solid microscope, and scored as tabulated below to obtain ulcer indices. […]
as §1
For the measurement of the Shay ulcer inhibiting activity, reference may be made to H. Shay, S. A. Komoroe, S. S. Fels, M. Meraze, M. Gruestein, and H. Siplet: Gastroent., 5, 43 (1945).

T1 sequence (P00747 97-810): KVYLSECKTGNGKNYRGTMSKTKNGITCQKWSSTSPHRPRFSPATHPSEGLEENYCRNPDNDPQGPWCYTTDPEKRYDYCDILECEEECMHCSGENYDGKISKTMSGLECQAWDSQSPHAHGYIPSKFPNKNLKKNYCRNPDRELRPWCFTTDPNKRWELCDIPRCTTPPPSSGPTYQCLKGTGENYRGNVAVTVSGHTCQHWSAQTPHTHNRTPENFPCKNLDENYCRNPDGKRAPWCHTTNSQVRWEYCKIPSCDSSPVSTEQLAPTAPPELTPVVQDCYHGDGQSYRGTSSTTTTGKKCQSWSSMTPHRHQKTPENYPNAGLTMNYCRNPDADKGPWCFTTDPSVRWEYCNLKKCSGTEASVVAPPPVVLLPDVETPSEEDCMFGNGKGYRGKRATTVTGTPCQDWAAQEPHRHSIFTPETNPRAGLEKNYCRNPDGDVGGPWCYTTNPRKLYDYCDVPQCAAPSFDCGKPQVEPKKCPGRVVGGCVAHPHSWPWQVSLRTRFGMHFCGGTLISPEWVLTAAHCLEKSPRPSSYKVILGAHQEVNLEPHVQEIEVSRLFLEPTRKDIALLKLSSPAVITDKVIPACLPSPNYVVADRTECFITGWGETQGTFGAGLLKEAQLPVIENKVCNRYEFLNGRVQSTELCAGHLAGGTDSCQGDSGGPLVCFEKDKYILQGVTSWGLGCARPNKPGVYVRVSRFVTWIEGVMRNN

`NC[C@H]1CC[C@H](C(=O)c2ccc(CCC(=O)O)cc2)CC1` [3-[p-trans-4-aminomethylcyclohexylcarbonyl)phenyl]-propionic acid hydrochloride]: the “Increase in the gastric mucosal blood flow” value is recorded as “weak increase” in test [1] (2 mg/kg i.v.) and “remarkable” in test [1] (5 mg/kg i.v.). Also, the Ulcer inhibiting ratio was 62.2% in the test with indomethacin ulcer, 34.0% with serotonin ulcer (30 mg/kg oral) and 76.7% in the test with serotonin ulcer (100 mg/kg oral). Further, the Clot lysis time at plasmin (10^-3 M) turned out to be 980.0 s; on plasmin (10^-4 M) it was 561.2 s; on plasmin (10^-5 M) it was 413.9 s. For the same compound, the “Inhibition ratio (acidity)” value in the test with gastric secretion (50 mg/kg i.p.) was determined as 17.5%; in the test with gastric secretion (100 mg/kg i.p.) it was 31.8%; in the test on gastric secretion (200 mg/kg i.p.), 70.1%. Moreover, the “Inhibition ratio (amount of gastric juice)” value in the test on gastric secretion (50 mg/kg i.p.) was 41.7%; in the test with gastric secretion (100 mg/kg i.p.) it was 54.4%; with gastric secretion (200 mg/kg i.p.) it was 89.4%. Moreover, the “Amount of gastric juice” value came to 4.8 ± 0.8 in the test on gastric secretion (50 mg/kg i.p.), 3.1 ± 0.7 with gastric secretion (100 mg/kg i.p.) and 0.7 ± 0.1 in the test with gastric secretion (200 mg/kg i.p.). Further, the Acidity with gastric secretion (50 mg/kg i.p.) is reported as 90.0 ± 4.5 μeq./ml; in the test on gastric secretion (100 mg/kg i.p.), 74.1 ± 6.1 μeq./ml; in the test with gastric secretion (200 mg/kg i.p.), 32.6 ± 2.6 μeq./ml. Besides, the Inhibition ratio with Shay ulcer (Shay ulcer, rats) was 43.5%. Further, the Ratio of perforation with Shay ulcer (Shay ulcer, rats, control 80) was 20%. Moreover, in the test with Shay ulcer (score 0-5 by ulcer area, 17 hours after pylorus ligation, control 4.6 ± 0.4), the Ulcer index is given as 2.6 ± 0.8.
